Active and inactive are the calls of the source. The calls are words filed in the database; no cut-off is given here.
Key:
[1] = Toxicity in C57BL/6J mouse assessed as effect on body weight at 40 mg/kg, ip; format: organism-based; details: in vivo
[2] = Toxicity in C57BL/6J mouse assessed as effect on relative liver weight at 40 mg/kg, ip; format: organism-based; details: in vivo
Mus musculus [3] = assay: Anti-inflammatory activity against MCD-induced C57BL/6J mouse model of nonalcoholic steatohepatitis assessed as downregulation of interleukin 6 expression in liver at 20 to 40 mg/kg/day, ip administered from week 3 to week 4 by immunoblotting analysis analysis; format: functional, organism-based; details: dose 20-40 mg/kg/day, time 2.0 weeks
Mus musculus [4] = assay: Anti-inflammatory activity against MCD-induced C57BL/6J mouse model of nonalcoholic steatohepatitis assessed as attenuation of ICAM1 expression in liver at 20 to 40 mg/kg/day, ip administered from week 3 to week 4 by immunoblotting analysis; format: functional, organism-based; details: dose 20-40 mg/kg/day, time 2.0 weeks
Mus musculus [5] = assay: Antifibrotic activity against MCD-induced C57BL/6J mouse model of liver fibrosis assessed as reduction in collagen I level in liver at 20 to 40 mg/kg, ip administered from week 3 to week 6 by sirius red staining based light microscopic analysis; format: functional, organism-based; details: dose 20-40 mg/kg, time 4.0 weeks

With C[C@H]1CO[C@]2(C)Oc3cc(O)c4c(c3C[C@H]12)O[C@@]1(C)OC[C@H](C)[C@H]1C4 the Activity [1] was “Non-Toxic”, the Activity [2] was “Non-Toxic” and the Activity (Mus musculus [3]) was “Active”. The Activity (Mus musculus [4]) was “Active” and the Activity (Mus musculus [5]) was “Active”.
